According to patent publication US12612391B2, “Cromolyn derivatives and uses thereof” (The General Hospital Corporation, priority 2020, dated 2026):

System: BV2-CD33^WT cells
Experiment: Aβ42 uptake in microglial BV2-CD33^WT cells (Aβ42-specific ELISA of cell lysates)
Assay type: cell-based
Settings: 100 μM; BV2-CD33 activated microglial cells; 3 hours pre-treatment, then 2 hours with Aβ42 peptide; vs DMSO control; FIG. 2
Method: FIG. 2 is a plot showing Aβ42 uptake in microglial BV2-CD33^WT cells treated with DMSO as control or cromolyn derivatives (C1, C3-8) at different concentrations for 3 hours. Afterwards, cells were incubated with DMSO or cromolyn derivatives in the presence of the Aβ42 peptide for additional 2 hours. Cell lysates were analyzed for intracellular levels of Aβ42 using an Aβ42-specific ELISA kit.

CC(=O)OCc1cc(=O)c2c(OCC(COc3cccc4oc(COC(C)=O)cc(=O)c34)OC(C)=O)cccc2o1 [Compound C7, Ac-Triol- Cromolyn]
microglial uptake of Aβ42: positive impact
